{"source": "patent US12642809B2", "about": "“Fucosylation and immune modulation in cancer” (H. LEE MOFFITT CANCER CENTER AND RESEARCH INSTITUTE, INC., priority 2019, dated 2026)", "key": {"SM1 tumors": {"test_system": "SM1 tumors", "test": "Anti-PD1 ± L-fucose, SM1 (BRAF-mutant) model in C57BL/6 mice", "assay_type": "in vivo, mouse", "description": "Fucosylation of HLA-DRB1 occurs on amino acid N48 (mutation to G abolishes interaction with fucose-binding AAL, lectin) (FIG. 9A). […] To further investigate the efficacy of the combination therapy of L-fucose and anti-PD1 and to see if the combination of L-fucose and anti-PD1 improved the efficacy of either agent alone, two mouse melanoma mouse models were used. The first was the NRAS-mutant melanoma mouse model. Here, C3H mice were pretreated with anti-PD1 and/or L-fucose or a L-fucose pre-dose followed by anti-PD1 antibody (FIG. 11). […] Using a BRAF-mutant melanoma model, the efficacy of the combination therapy was more pronounced. Here C57BL6 mice were challenged with SMI cells (FIG. 11). 7 days post challenge, mice received either a control, anti-PD1, L-fucose, or L-fucose and anti-PD1.\nSW1 or SM1 mouse melanoma cells were injected into syngeneic C3H/HeN female or C57BL/6 male mice, respectively. After approximately 7 days, when the mice tumors reached ˜150 mm^3, the mice were either supplemented with or without 100 mM L-fucose (Biosynth (Oak Terrace, IL)) via drinking water, which was provided ad libitum. Simultaneously, the mice were injected either with PBS (control) or anti-PD1 (20 mg/kg, clone RMP1-14, Bioxcell (West Lebanon, NH)) every 3-4 days until endpoint. When the tumors reached ˜2 cm^3, the animals were sacrificed."}, "[1]": {"test_system": "cell surface fucosylation", "test": "Flow cytometry of cell surface fucosylation (AAL lectin) in melanoma cells", "assay_type": "cell-based, human", "conditions": "250 μM, 72 h, panel of melanoma cell lines", "protocol": "Indicated cells were treated for 72 h with DMSO, 250 μM fucosyltransferase inhibitor (FUTi) (Millipore Sigma (St. Louis, MO)), or 250 μM of L-fucose (Biosynth (Oak Terrace, IL)). After 72 h, cells were stained with 0.1 μM PKH26 (Millipore Sigma (St. Louis, MO)) prior to fixation in 4% formaldehyde solution. The cells were stained with anti-HLA-DRB1 (rabbit anti-human HLA-DRB1 (0.2 μg/mL, ab92371, Abcam (Cambridge, UK)) and fluorescein AAL (0.2 μg/ml. Vector Labs (Burlingame, CA)), or anti-human or anti-mouse PD-L1 (Novus Biologicals (Centennial, CO) or Biolegend (San Diego, CA), respectively) overnight. The following day the cells were washed 3 times prior to adding AlexaFluor 594 donkey anti-rabbit (0.8 μg/mL, ThermoFisher Scientific (Waltham, MA)). Cells were washed 3 times and then subject to flow cytometric analyses using a FACSCalibur™ (BD Biosciences (San Jose, CA)). Samples were analyzed using FlowJo™ analysis software (BD Biosciences (San Jose, CA)). Median values of DRB1 and AAL were normalized to PKH26 values and statistical analysis was performed using GraphPad Prism™."}, "SW1 tumors [2]": {"test_system": "SW1 tumors", "test": "CD4+/CD8+ T cell immunodepletion, SW1 model", "assay_type": "in vivo, mouse", "protocol": "Single-cell suspensions from tumor and spleen tissue were stained with Live/Dead Zombie NIR (Biolegend, (San Diego, CA)) at 1:1,000 in PBS for 20 min. Cell suspensions were spun down and stained with the following antibodies: APC anti-mouse CD3 (0.5 μg/mL, BD Biosciences (San Jose, CA)), Pacific Blue anti-mouse CD4 ([…], BD Biosciences (San Jose, CA)), BV785 anti-mouse CD8 (0.5 μg/mL, BD Biosciences (San Jose, CA)), PerCP anti-mouse CD25 ([…], BD Biosciences (San Jose, CA)), FITC anti-mouse F4/80 (0.5 μg/mL, BD Biosciences (San Jose, CA)), PeCy7 anti-mouse CD11c (0.5 μg/mL, BD Biosciences (San Jose, CA)), PE anti-mouse NK1.1 (0.5 μg/mL, BD Biosciences (San Jose, CA)), PE anti-mouse DX5 (0.5 μg/mL, BD Biosciences (San Jose, CA)), PerCP-Cy5.5 anti-mouse CD11b (0.5 μg/mL, BD Biosciences (San Jose, CA)). After staining, the cells were washed and fixed (2% formaldehyde), followed by another wash and flow cytometric analysis. The compensation controls were prepared using 0.5 μg/ml. of each antibody with beads UltraComp eBeads™, (ThermoFisher Scientific (Waltham, MA)). All samples were subject to flow cytometric analysis using a LSR Flow Cytometer (BD Biosciences (San Jose, CA)). Flow cytometric data was further analyzed using FlowJo™ analysis software (BD Biosciences (San Jose, CA)). TIL profiles were determined as a measure of TIL subpopulations per gram of tumor tissues or % of total splenocytes.\nThree days prior to tumor engraftment, PBS (control) or ˜300 μg α-CD4 (20 mg/kg, for immunodepletion, GK1.5, Bioxcell (West Lebanon, NH)) or α-CD8 (20 mg/kg, for immunodepletion, 2.43, Bioxcell (West Lebanon, NH)) was administered by intraperitoneal injection into the indicated cohorts of mice. Injections of immunodepletion antibody or PBS were continued every 3-4 days until endpoint. Syngeneic recipient C3H/HeN female or C57BL/6 male mice were injected with SW1 or SMI cells, respectively. After approximately 7 days, when the tumors reached ˜150 mm^3, the mice were either supplemented with or without 100 mM L-fucose (Biosynth (Oak Terrace, IL)) via drinking water, which was provided ad libitum. When the tumors reached ˜2 cm^3, the animals were sacrificed, and the tumors were either processed for flow cytometric profiling or for histological analysis as indicated."}, "SW1 tumors [3]": {"test_system": "SW1 tumors", "test": "SW1 tumors in immunodeficient NSG mice fed with or without L-fuc", "assay_type": "in vivo, mouse", "protocol": "Four-to-six-week-old female C3HeN and male C57BL6 mice were purchased from Charles Rivers Laboratories for the indicated experiments. Four-to-six-week-old male NSG mice from the Lau laboratory breeding colony were used for the indicated experiments. Mice were housed in the Comparative Medicine Facility at H. Lee Moffitt Cancer Center and Research Institute. Mouse tumor volumes were measured using length, width and depth divided by 2. Generally, 10 mice were assigned to each indicated treatment cohort, and 1×10^6 melanoma cells were subcutaneously injected into the right rear flanks of the recipient mice. At each experimental endpoint, mice were humanely euthanized using CO2 inhalation in accordance to the American Veterinary Medical Association guidelines. […] All experiments were approved by the Institutional Animal Care and Use Committee (IACUC) in accordance with the National Research Council guidelines.\nSW1 murine mouse melanoma cells were subcutaneously injected into the right rear flanks of NSG mice. After 7 days, when the tumors reached ˜150 mm^3, the mice were either supplemented with or without 100 mM L-fucose (Biosynth (Oak Terrace, IL)) via drinking water, which was provided ad libitum. When the tumors reached 2 cm^3, the animals were sacrificed."}}}
{"smiles": "C[C@H](O)[C@@H](O)[C@@H](O)[C@H](O)C=O", "note": "[L-fucose]", "values": [{"measurement": "tumor growth suppressed", "setting": "SM1 tumors; for 21 days", "value": "> 50", "unit": "%"}, {"measurement": "tumor suppression compared with anti-PD1", "setting": "SM1 tumors; single agents", "value": "less effective than anti-PD1"}, {"measurement": "cell surface fucosylation relative to DMSO", "setting": "[1]", "value": "increased"}, {"measurement": "L-fuc-induced tumor suppression and increase in total TILs", "setting": "SW1 tumors [2]; CD4+ T cell-depleted mice", "value": "abrogated tumor suppression"}, {"measurement": "increases in intratumoral NK, DC and CD8+ T cells", "setting": "SW1 tumors [2]; CD4+ T cell-depleted mice", "value": "completely blunted"}, {"measurement": "L-fuc-induced tumor suppression and increase in total TILs", "setting": "SW1 tumors [2]; CD4+ T cell-depleted mice, listed as L-fuc", "value": "completely abrogated"}, {"measurement": "reduced tumor growth", "setting": "SW1 tumors [2]; CD8+ T cell-depleted mice", "value": "~50", "unit": "%"}, {"measurement": "reduced tumor growth", "setting": "SW1 tumors [2]; control (PBS-injected) mice", "value": "~60", "unit": "%"}, {"measurement": "increase in intratumoral CD8+ T cells", "setting": "SW1 tumors [2]; control mice", "value": "~10", "unit": "fold"}, {"measurement": "increase in intratumoral DC", "setting": "SW1 tumors [2]; control mice", "value": "~10", "unit": "fold"}, {"measurement": "increase in intratumoral NK cells", "setting": "SW1 tumors [2]; control mice", "value": "~3", "unit": "fold"}, {"measurement": "tumor growth with vs without L-fuc", "setting": "SW1 tumors [3]", "value": "no significant differences"}]}
